The numbers were not newly measured in US10342235B2, “Formulations comprising phosphite” (Ceradis B.V., priority 2015, dated 2019), which cites them from elsewhere.

The series concerns rodents. The settings on record: oral administration, dermal administration, inhalatory exposure.

Take potassium phosphite: the Toxicity in rodents entry is recorded as “low toxicity”.
